Laboratory results reported in patent US20210122763A1, “OGA INHIBITOR COMPOUNDS” (Janssen Pharmaceutica NV, priority 2018, published 2021).

What was measured:
[1] = target: T1, recombinant human Meningioma Expressed Antigen 5 (MGEA5), also referred to as O-GlcNAcase (OGA) (Homo sapiens, UniProt O60502); assay: OGA biochemical assay (inhibition of FM-GlcNAc hydrolysis, fluorescence); settings: for Emax: read-out: Enzymatic Emax (%); for IC50: read-out: Enzymatic hOGA, pIC50 (converted)
T1 construct: Full length OGA enzyme was purchased at OriGene (cat #TP322411); purchased OriGene TP322411
T1 sequence (O60502 1-916): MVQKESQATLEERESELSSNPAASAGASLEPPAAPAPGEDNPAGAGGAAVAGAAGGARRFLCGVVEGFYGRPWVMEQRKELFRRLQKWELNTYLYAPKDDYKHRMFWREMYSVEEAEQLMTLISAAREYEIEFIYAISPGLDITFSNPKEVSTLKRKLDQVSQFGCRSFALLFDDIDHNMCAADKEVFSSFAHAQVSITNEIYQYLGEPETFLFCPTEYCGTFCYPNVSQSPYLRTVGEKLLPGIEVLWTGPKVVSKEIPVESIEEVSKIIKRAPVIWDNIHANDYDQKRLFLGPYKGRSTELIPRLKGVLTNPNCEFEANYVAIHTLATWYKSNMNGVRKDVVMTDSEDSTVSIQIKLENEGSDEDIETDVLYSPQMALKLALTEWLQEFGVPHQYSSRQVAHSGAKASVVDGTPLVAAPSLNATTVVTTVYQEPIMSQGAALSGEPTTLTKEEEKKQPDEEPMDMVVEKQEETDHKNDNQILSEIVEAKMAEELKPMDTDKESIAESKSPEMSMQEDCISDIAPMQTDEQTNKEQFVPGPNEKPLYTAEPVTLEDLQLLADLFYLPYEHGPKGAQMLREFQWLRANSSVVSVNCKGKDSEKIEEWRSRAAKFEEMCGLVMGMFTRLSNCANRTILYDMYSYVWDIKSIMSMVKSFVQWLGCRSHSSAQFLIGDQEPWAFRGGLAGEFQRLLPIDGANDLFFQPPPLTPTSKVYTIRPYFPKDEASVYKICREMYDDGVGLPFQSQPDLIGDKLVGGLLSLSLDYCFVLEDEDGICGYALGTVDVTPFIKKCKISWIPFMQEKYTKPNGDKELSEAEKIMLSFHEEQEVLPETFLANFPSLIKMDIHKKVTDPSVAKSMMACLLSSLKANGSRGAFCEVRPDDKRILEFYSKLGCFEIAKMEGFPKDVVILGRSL
Text: The assay is based on the inhibition of the hydrolysis of fluorescein mono-B-D-N-Acetyl-Glucosamine (FM-GcNAc) (Mariappa et al. 2015, Biochem J470:255) by the recombinant human Meningioma Expressed Antigen 5 (MGEA5), also referred to as O-GlcNAcase (OGA). The hydrolysis FM-GlcNAc (Marker Gene technologies, cat #M1485) results in the formation of B-D-N-glucosamineacetate and fluorescein. The fluorescence of the latter can be measured at excitation wavelength 485 nm and emission wavelength 538 nm. An increase in enzyme activity results in anincrease in fluorescence signal. Full length OGA enzyme was purchased at OriGene (cat #TP322411). The enzyme was stored in 25 mM Tris.HCl, pH 7.3, 100 mM glycine, 10% glycerol at −20° C. Thiamet G and GlcNAcStatin were tested as reference compounds (Yuzwa et al. 2008 Nature Chemical Biology 4:483; Yuzwa et al. 2012 Nature Chemical Biology 8:393). The assay was performed in 200 mM Citrate/phosphate buffer supplemented with 0.005% Tween-20. 35.6 g Na2HPO4 2H2O (Sigma, #C0759) were dissolved in 1 L water to obtain a 200 mM solution. 19.2 g citric acid (Merck, #1.06580) was dissolved in 1 L water to obtain a 100 mM solution. pH of the sodiumphosphate solution was adjusted with the citric acid solution to 7.2. The buffer to stop the reaction consists of a 500 mM Carbonate buffer, pH 11.0. 734 mg FM-GlcNAc were dissolved in 5.48 mL DMSO to obtain a 250 mM solution and was stored at −20° C. OGA was used at a 2 nM concentration and FM-GcNAc at a 100 uM final concentration. Dilutions were prepared in assay buffer.
50 nl of a compound dissolved in DMSO was dispensed on Black Proxiplate™ 384 Plus Assay plates (Perkin Elmer, #6008269) and 3 μl fl-OGA enzyme mix added subsequently. Plates were pre-incubated for 60 min at room temperature and then 2 μl FM-GlcNAc substrate mix added.
Plates were briefly centrifuged for 1 min at 1000 rpm and incubate at room temperature for 6 h. To stop the reaction 5 μl STOP buffer were added and plates centrifuge again 1 min at 1000 rpm. Fluorescence was quantified in the Thermo Scientific Fluoroskan Ascent or the PerkinElmer EnVision with excitation wavelength 485 nm and emission wavelength 538 nm.
For analysis a best-fit curve is fitted by a minimum sum of squares method. From this an IC50 value and Hill coefficient was obtained. High control (no inhibitor) and low control (saturating concentrations of standard inhibitor) were used to define the minimum and maximum values.

OGA = target: T2, OGA (Homo sapiens, UniProt O60502); assay: OGA cellular assay (ICC detection of O-GlcNAcylated proteins in HEK293 cells inducible for P301L mutant human Tau); type: cell-based; settings: 6 hours incubation; for Emax: HEK293, HEK293 cells inducible for P301L mutant human Tau; for EC50: read-out: Cellular hOGA, pEC50 (converted)
T2 construct: HEK293 cells inducible for P301L mutant human Tau (isoform 2N4R) were established at Janssen; endogenous in cells; host or cells: HEK293 cells inducible for P301L mutant human Tau (2N4R)
T2 sequence (O60502 1-916): T1 sequence (O60502 1-916)
Method: HEK293 cells inducible for P301L mutant human Tau (isoform 2N4R) were established at Janssen. Thiamet-G was used for both plate validation (high control) and as reference compound (reference EC50 assay validation). OGA inhibition is evaluated through the immunocytochemical (ICC) detection of O-GlcNAcylated proteins by the use of a monoclonal antibody (CTD110.6; Cell Signaling, #9875) detecting 0-GlcNAcylated residues as previously described (Dorfmueller et al. 2010 Chemistry & biology, 17:1250). Inhibition of OGA will result in an increase of 0-GlcNAcylated protein levels resulting in an increased signal in the experiment. Cell nuclei are stained with Hoechst to give a cell culture quality control and a rough estimate of immediate compounds toxicity, if any. ICC pictures are imaged with a Perkin Elmer Opera Phenix plate microscope and quantified with the provided software Perkin Elmer Harmony 4.1.
Cells were propagated in DMEM high Glucose (Sigma, #D5796) following standard procedures. 2 days before the cell assay cells are split, counted and seeded in Poly-D-Lysine (PDL) coated 96-wells (Greiner, #655946) plate at a cell density of 12,000 cells per cm^2 (4,000 cells per well) in 100p of Assay Medium (Low Glucose medium is used to reduce basal levels of GlcNAcylation) (Park et al. 2014 The Journal of biological chemistry 289:13519). At the day of compound test medium from assay plates was removed and replenished with 90 μl of fresh Assay Medium. 10 μl of compounds at a 10 fold final concentration were added to the wells. Plates were centrifuged shortly before incubation in the cell incubator for 6 hours. DMSO concentration was set to 0.2%. Medium is discarded by applying vacuum. For staining of cells medium was removed and cells washed once with 100 μl D-PBS (Sigma, #D8537). From next step onwards unless other stated assay volume was always 50p and incubation was performed without agitation and at room temperature. Cells were fixed in 50 μl of a 4% paraformaldehyde (PFA, Alpha aesar, #043368) PBS solution for 15 minutes at room temperature. […] Before analysis samples were washed 2 times manually for 5 minutes in ICC base buffer.
Imaging is performed using Perkin Elmer Phenix Opera using a water 20× objective and recording 9 fields per well. Intensity readout at 488 nm is used as a measure of O-GlcNAcylation level of total proteins in wells. To assess potential toxicity of compounds nuclei were counted using the Hoechst staining. IC50-values are calculated using parametric non-linear regression model fitting. As a maximum inhibition Thiamet G at a 200 uM concentration is present on each plate. In addition, a concentration response of Thiamet G is calculated on each plate.

[2] = HEK293 cells inducible for P301L mutant human Tau

Cc1cc(OC2CCN(C(C)c3cc4c(cn3)OCCO4)CC2)cc(C)n1 (centres unmarked) [Compound 29]
Emax [1]: 60%
IC50 [1]: 5010 nM
Emax (OGA; maximum = Thiamet G 200 uM): 7%
EC50 (OGA; [2]): > 1000 nM

Cc1cc(OC2CCN(C(C)c3ccc4c(n3)OCCO4)CC2)cc(C)n1 (single isomer, unassigned) [Compound 3]
Enzymatic Emax (%) [1]: 103%
IC50 [1]: 50.1 nM
Cellular Emax (%) (OGA; HEK293 cells inducible for P301L mutant human Tau, maximum = Thiamet G 200 uM): 83%
EC50 (OGA; [2]): 251 nM

Cc1cc(OC2CCN([C@H](C)c3ccc4c(n3)OCCO4)CC2)cc(C(F)(F)F)n1 (single isomer, unassigned) [Compound 146]
Emax [1]: 58%
IC50 [1]: 6310 nM
Emax (OGA; maximum = Thiamet G 200 uM): 2%
EC50 (OGA; [2]): > 1000 nM

Cc1cc(OC2CCN(C(C)c3cc4nc(C)sc4cc3F)CC2)cc(C)n1 (centres unmarked) [Compound 8]
Emax [1]: 100%
IC50 [1]: 15.8 nM
Emax (OGA; maximum = Thiamet G 200 uM): 89%
EC50 (OGA; [2]): 63.1 nM

Cc1cc(OC2CCN([C@@H](C)c3ccc4c(n3)OCCO4)CC2)cc(C(F)(F)F)n1 (single isomer, unassigned) [Compound 147]
Emax [1]: 96%
IC50 [1]: 25.1 nM
Emax (OGA; maximum = Thiamet G 200 uM): 81%
EC50 (OGA; [2]): 200 nM

Cc1cncc(OC2CCN(C(C)c3ccc4c(n3)OCCO4)CC2)c1 (centres unmarked) [Compound 47]
Emax [1]: 99%
IC50 [1]: 63.1 nM
Emax (OGA; maximum = Thiamet G 200 uM): 67%
EC50 (OGA; [2]): 316 nM

CC(c1ccc2c(n1)OCCO2)N1CCC(Oc2cnc(Cl)c(F)c2)CC1 (centres unmarked) [Compound 69]
Emax [1]: 95%
IC50 [1]: 79.4 nM
Emax (OGA; maximum = Thiamet G 200 uM): 68%
EC50 (OGA; [2]): 501 nM

Cc1cc(OC2CCN(C(C)c3nc4c(cc3F)OCCO4)CC2)cc(C(F)(F)F)n1 (centres unmarked) [Compound 18]
Emax [1]: 101%
IC50 [1]: 6.31 nM
Emax (OGA; maximum = Thiamet G 200 uM): 79%
EC50 (OGA; [2]): 63.1 nM

Cc1cc(OC2CCN(C(C)c3nc4c(cc3F)CCO4)CC2)c(Cl)c(C)n1 (centres unmarked) [Compound 35]
Emax [1]: 101%
IC50 [1]: 7.94 nM
Emax (OGA; maximum = Thiamet G 200 uM): 98%
EC50 (OGA; [2]): 25.1 nM

Cc1cc(OC2CCN(C(C)c3nc4c(cc3F)OCCO4)CC2)cnc1C (centres unmarked) [Compound 166]
Emax [1]: 98%
IC50 [1]: 10 nM
Emax (OGA; maximum = Thiamet G 200 uM): 85%
EC50 (OGA; [2]): 63.1 nM

Cc1cc(OC2CCN(C(C)c3nc4nc(C)sc4cc3F)CC2)cc(C)n1 (centres unmarked) [Compound 32]
Emax [1]: 100%
IC50 [1]: 15.8 nM
Emax (OGA; maximum = Thiamet G 200 uM): 72%
EC50 (OGA; [2]): 79.4 nM

Cc1cc(OC2CCN(C(C)c3ccc4c(n3)OCCO4)CC2)nc(C)n1 (single isomer, unassigned) [Compound 11]
Enzymatic Emax (%) [1]: 84%
IC50 [1]: 2510 nM

Cc1cc(OC2CCN([C@H](C)c3ccc4c(n3)OCC4)CC2)cc(C)n1 (single isomer, unassigned) [Compound 61]
Emax [1]: 95%
IC50 [1]: 15.8 nM
Emax (OGA; maximum = Thiamet G 200 uM): 87%
EC50 (OGA; [2]): 79.4 nM

Cc1cc(OC2CCN(C(C)c3ccc4c(n3)OCCO4)CC2)c(Cl)c(C)n1 (centres unmarked) [Compound 66]
Emax [1]: 96%
IC50 [1]: 79.4 nM
Emax (OGA; maximum = Thiamet G 200 uM): 73%
EC50 (OGA; [2]): 251 nM

Cc1cc(OC2CCN([C@@H](C)c3ccc4c(n3)OCC4)CC2)cc(C)n1 (single isomer, unassigned) [Compound 62]
Emax [1]: 90%
IC50 [1]: 1000 nM
Emax (OGA; maximum = Thiamet G 200 uM): 6%
EC50 (OGA; [2]): > 1000 nM

Cc1cc(OC2CCN(C(C)c3nc4c(cc3F)OCCO4)CC2)cc(C(F)F)n1 (centres unmarked) [Compound 63]
Emax [1]: 96%
IC50 [1]: 10 nM
Emax (OGA; maximum = Thiamet G 200 uM): 80%
EC50 (OGA; [2]): 79.4 nM

CC(c1ccc2c(n1)OCCO2)N1CCC(Oc2ccncc2C#N)CC1 (centres unmarked) [Compound 104]
Emax [1]: 95%
IC50 [1]: 631 nM
Emax (OGA; maximum = Thiamet G 200 uM): 12%
EC50 (OGA; [2]): > 1000 nM

Cc1cc(OC2CCN(C(C)c3ccc4c(n3)OCCO4)CC2)cc(C(F)F)n1 (centres unmarked) [Compound 64]
Emax [1]: 94%
IC50 [1]: 31.6 nM
Emax (OGA; maximum = Thiamet G 200 uM): 61%
EC50 (OGA; [2]): 316 nM

CC(c1ccc2c(n1)OCCO2)N1CCC(Oc2ccnc(C#N)c2)CC1 (centres unmarked) [Compound 51]
Emax [1]: 100%
IC50 [1]: 63.1 nM
Emax (OGA; maximum = Thiamet G 200 uM): 60%
EC50 (OGA; [2]): 631 nM

COc1cc(OC2CCN([C@@H](C)c3nc4nc(C)sc4cc3F)CC2)cc(C)n1 (single isomer, unassigned) [Compound 81]
Emax [1]: 93%
IC50 [1]: 1.58 nM
Emax (OGA; maximum = Thiamet G 200 uM): 87%
EC50 (OGA; [2]): 31.6 nM

Cc1ccc(COC2CCN(C(C)c3nc4c(cc3F)OCCO4)CC2)cn1 (centres unmarked) [Compound 138]
Emax [1]: 100%
IC50 [1]: 20 nM
Emax (OGA; maximum = Thiamet G 200 uM): 79%
EC50 (OGA; [2]): 158 nM

Cc1cc(OC2CCN(C(C)c3ccc4c(n3)OCCO4)CC2)nc(C)n1 (centres unmarked) [Compound 9]
Emax [1]: 102%
IC50 [1]: 100 nM

Cc1cc(OC2CCN(C(C)c3ccc4c(n3)OCCO4)CC2)cc(C)n1 (centres unmarked) [Compound 1]
Emax [1]: 101%
IC50 [1]: 63.1 nM
